# Results published in patent US20050074834A1 (priority 2001, published 2005).
# “Also recorded” adds a separate entry of the source. Where a name gives a salt, the structure may show the parent alone.
# Columns and labels:
# [1] = tested on: chromatophore/neuronal cell; format: cell-based
# chromatophores [2] = experiment: cells; settings: read-out: Threshold concentration PPM
# [3] = tested on: chromatophore/protozoal cell; format: cell-based
# chromatophores [4] = tested on: chromatophores
# melanophores = format: cell-based
# iridophores = format: cell-based
# erythrophores = format: cell-based
# ryanodine receptors = settings: cited from earlier work
# [5] = tested on: Betta splendens erythrophores; format: cell-based
# chromatophores [6] = format: cell-based
# xanthophores = format: cell-based
# [7] = tested on: Betta splendens chromatophores; format: cell-based
# [8] = tested on: Hemichromis bimaculatus chromatophores; format: cell-based
# Betta chromatophores = format: cell-based
# [9] = tested on: chromatophore/bacterial cell; format: cell-based
# fish chromatophores = format: cell-based
compound,measurement,setting,value
C[N+](C)(C)CCOC(N)=O [Carbachol],2-Cell Cytosensor (second cell type included),[1],Erythr. Aggr.
same,minimal effective concentration,chromatophores [2],1 to 100 µg/mL
CCN(CC)CCCC(C)Nc1ccnc2cc(Cl)ccc12 (stereo not shown) [Chloroquine],2-Cell Cytosensor (second cell type included),[3],Normal
same,minimal effective concentration,chromatophores [2],100 to 1000 µg/mL
same,Response time Hr.,chromatophores [4],XX (key: X=1-6 hr; XX=6-24 hr)
CCOP(=O)(OCC)Oc1ccc([N+](=O)[O-])cc1 [Paraoxon],Chromatophore response Melanophores,melanophores,A/I (FS)
same,Chromatophore response Iridophores,iridophores,Hue changes (FS)
same,Chromatophore response Erythrophores,erythrophores,Aggr. (FS)
Ryanodine,concentrations at which ryanodine acts as an antagonist of the same receptors,ryanodine receptors,> 1 µM
same,Morphology Effect: Aggregation,[5],Yes and No
same,Morphology Effect: Dispersion,[5],No
same,Threshold concentration PPB,chromatophores [4],XX (key: X=1 to 100 PPB; XX=100 to 1000 PPB)
same,Chromatophore response Erythrophores,erythrophores,Aggr.
COP(=O)(OC)OC=C(Cl)Cl [Dichlorvos],Chromatophore response Iridophores,iridophores,"Hue change, then Imp."
same,Response time Hr.,chromatophores [4],X (key: X=1-6 hr; XX=6-24 hr)
same,Chromatophore response Erythrophores,erythrophores,Imp. (FS)
CCOC(=O)c1cccc(N)c1 [Tricaine],Chromatophore response Melanophores,melanophores,Disp.
same,Threshold concentration PPM,chromatophores [4],X (key: X=1 to 100 PPM; XX=100 to 1000 PPM)
Cn1c(=O)c2c(ncn2C)n(C)c1=O [Caffeine],concentration printed for an analyte to which chromatophores respond,chromatophores [6],100 µM
same,Threshold concentration PPB,chromatophores [4],XXX
c1cc2c3c(cccc3c1)CC2 [Acenapthene],Threshold concentration PPM,chromatophores [4],X (key: X=1 to 100 PPM; XX=100 to 1000 PPM)
same,Chromatophore response Erythrophores,erythrophores,Imp.
COC(=O)C=C(C)OP(=O)(OC)OC [Mevinphos],Chromatophore response Melanophores,melanophores,Imp.
same,Chromatophore response Iridophores,iridophores,"Hue change, then Imp."
same,Response time Hr.,chromatophores [4],X (key: X=1-6 hr; XX=6-24 hr)
same,Chromatophore response Erythrophores,erythrophores,Imp. (FS)
Cc1cc(C(C)(C)C)c(O)c(C)c1CC1=NCCN1 [Oxymetazoline],Chromatophore response Xanthophores,xanthophores,Disp.
same,Threshold concentration PPB,chromatophores [4],XX (key: X=1 to 100 PPB; XX=100 to 1000 PPB)
Cc1ncc([N+](=O)[O-])n1CCO [Metronidazole],2-Cell Cytosensor (second cell type included),[3],Normal
same,minimal effective concentration,chromatophores [2],1 to 100 µg/mL
same,Response time Hr.,chromatophores [4],XX (key: X=1-6 hr; XX=6-24 hr)
Nc1ncnc2c1ncn2[C@@H]1O[C@H](COP(=O)(O)OP(=O)(O)OP(=O)(O)O)[C@@H](O)[C@H]1O [ATP],2-Cell Cytosensor (second cell type included),[1],Erythr. Aggr.
same,Threshold concentration PPM,chromatophores [4],X (key: X=1 to 100 PPM; XX=100 to 1000 PPM)
"c1ccc2cc3c(ccc4ccccc43)cc2c1 [1,2-Benzanthracene]",Threshold concentration PPM,chromatophores [4],X (key: X=1 to 100 PPM; XX=100 to 1000 PPM)
same,Chromatophore response Erythrophores,erythrophores,Imp.
Cholera toxin,concentration at which inhibition of norepinephrine induced pigment aggregation is detected,[7],≥ 1 ng/mL
same,effect on Betta splendens chromatophores,[7],causes hyperdispersion
same,change of appearance of Hemichromis bimaculatus chromatophores,[8],change the appearance
same,erythrophore response upon norepinephrine exposure,[8],impaired
same,melanophore response upon challenge by norepinephrine,[8],unimpaired
same,chromatophore appearance after exposure,Betta chromatophores,Pigment aggregation is evident
same,pigment aggregation in response to norepinephrine after pre-incubation with CTX,Betta chromatophores,impaired pigment aggregation in response to NE
same,selective sensitivity of color classes of chromatophores,Betta chromatophores,selective sensitivity of erythrophores to cholera toxin
same,Response time Hr.,chromatophores [4],X (key: X=1-6 hr; XX=6-24 hr)
same,Threshold concentration PPM,chromatophores [4],X (key: X=1 to 100 PPM; XX=100 to 1000 PPM)
same,Chromatophore response Erythrophores,erythrophores,Imp.
COP(=O)(OC)C(O)C(Cl)(Cl)Cl (stereo not shown) [Trichlorfon],Chromatophore response Iridophores,iridophores,Hue change (FS)
same,Response time Hr.,chromatophores [4],X (key: X=1-6 hr; XX=6-24 hr)
same,Chromatophore response Erythrophores,erythrophores,Imp. (FS)
[H]/N=C(/N)N[C@H]1[C@H](O)[C@@H](O)[C@H](O[C@@H]2O[C@@H](C)[C@](O)(C=O)[C@H]2O[C@@H]2O[C@@H](CO)[C@H](O)[C@@H](O)[C@@H]2NC)[C@@H](N/C(N)=N\[H])[C@@H]1O [Streptomycin],2-Cell Cytosensor (second cell type included),[9],Normal
same,minimal effective concentration,chromatophores [2],1 to 100 µg/mL
same,Response time Hr.,chromatophores [4],XX (key: X=1-6 hr; XX=6-24 hr)
O=S(=O)(NCCNC/C=C/c1ccc(Br)cc1)c1cccc2cnccc12 [H89],chromatophore response in the absence of forskolin,fish chromatophores,aggregate; also recorded: aggregation
same,chromatophore response in the presence of forskolin,fish chromatophores,continues to be responsive; also recorded: still results in cell aggregation
c1ccc2c(c1)CCCC2C1=NCCN1 (stereo not shown) [Tetrahydrozoline],Chromatophore response Xanthophores,xanthophores,Disp.
same,Threshold concentration PPB,chromatophores [4],XX (key: X=1 to 100 PPB; XX=100 to 1000 PPB)
c1ccc2c(CC3=NCCN3)cccc2c1 [Naphazoline],Chromatophore response Xanthophores,xanthophores,Disp.
same,Threshold concentration PPB,chromatophores [4],XX (key: X=1 to 100 PPB; XX=100 to 1000 PPB)
C=C1[C@@H](C)[C@H]2[C@H](Cc3ccccc3)NC(=O)[C@]23[C@H](OC(C)=O)/C=C/[C@@](C)(O)C(=O)[C@@H](C)C/C=C/[C@H]3[C@@H]1O [Cytochalasin D],Chromatophore response Melanophores,melanophores,Imp.
same,Threshold concentration PPM,chromatophores [4],XX (key: X=1 to 100 PPM; XX=100 to 1000 PPM)
C=C[C@@]1(C)CC(=O)[C@]2(O)[C@@]3(C)[C@@H](O)CCC(C)(C)[C@@H]3[C@H](O)[C@H](OC(C)=O)[C@@]2(C)O1 [Forskolin],concentration printed for an analyte to which chromatophores respond,chromatophores [6],0.01 µM
same,Threshold concentration PPB,chromatophores [4],XX (key: X=1 to 100 PPB; XX=100 to 1000 PPB)
COc1cc(CNC(=O)CCCC/C=C/C(C)C)ccc1O [Capsaicin],Chromatophore response Melanophores,melanophores,Hollow-
same,minimal effective concentration,chromatophores [2],1 to 100 µg/mL
"O=S(=O)(F)Cc1ccccc1 [PMSF, phenylmethylsulfonyl fluoride]",effect of PMSF on sensitivity to H89,fish chromatophores,heightens the sensitivity of cells to H89; also recorded: increased sensitivity to H89 inhibition
same,Chromatophore response (cell spans the chromatophore type columns),chromatophores [4],Imp. (FS)
same,Threshold concentration PPM,chromatophores [4],X (key: X=1 to 100 PPM; XX=100 to 1000 PPM)
c1ccc(C2CC2)c(OCC2=NCCN2)c1 [cirazoline],chromatophore response after forskolin and PMSF,fish chromatophores,no aggregation occurred
same,chromatophore response in the absence of forskolin,fish chromatophores,aggregate; also recorded: aggregation
same,chromatophore response in the presence of forskolin,fish chromatophores,unresponsive; also recorded: not detectable
"Pertussis toxin: Bacterial toxin, Pertussis toxin",Chromatophore response Melanophores,melanophores,Imp.
same,selective sensitivity of color classes of chromatophores,Betta chromatophores,melanophores to pertussis toxin
same,Response time Hr.,chromatophores [4],X (key: X=1-6 hr; XX=6-24 hr)
same,Threshold concentration PPM,chromatophores [4],X (key: X=1 to 100 PPM; XX=100 to 1000 PPM)
Penicillin,2-Cell Cytosensor (second cell type included),[9],Normal
same,Response time Hr.,chromatophores [4],XX (key: X=1-6 hr; XX=6-24 hr)
same,Threshold concentration PPM,chromatophores [4],X (key: X=1 to 100 PPM; XX=100 to 1000 PPM)
NCCNS(=O)(=O)c1cccc2cnccc12 [Protein kinase inhibitor H-9],Chromatophore response Melanophores,melanophores,Disp.
same,Threshold concentration PPM,chromatophores [4],XX (key: X=1 to 100 PPM; XX=100 to 1000 PPM)
Clc1cccc(Cl)c1N=C1NCCN1 [Clonidine],Chromatophore response Xanthophores,xanthophores,Disp.
same,chromatophore response after forskolin and PMSF,fish chromatophores,no aggregation occurred
same,chromatophore response in the absence of forskolin,fish chromatophores,aggregate; also recorded: aggregation
same,chromatophore response in the presence of forskolin,fish chromatophores,unresponsive; also recorded: not detectable
same,Threshold concentration PPB,chromatophores [4],XX (key: X=1 to 100 PPB; XX=100 to 1000 PPB)
CNCCNS(=O)(=O)c1cccc2cnccc12 [Protein kinase inhibitor H-8],Chromatophore response Melanophores,melanophores,Disp.
same,Threshold concentration PPM,chromatophores [4],XX (key: X=1 to 100 PPM; XX=100 to 1000 PPM)
MCH,Chromatophore response Melanophores,melanophores,Aggr.
same,Threshold concentration PPB,chromatophores [4],X (key: X=1 to 100 PPB; XX=100 to 1000 PPB)
C=C[C@H]1C[N@@]2CC[C@H]1C[C@H]2[C@H](O)c1ccnc2ccc(OC)cc12 [Quinine sulfate],2-Cell Cytosensor (second cell type included),[3],Normal
same,minimal effective concentration,chromatophores [2],100 to 1000 µg/mL
same,Response time Hr.,chromatophores [4],XX (key: X=1-6 hr; XX=6-24 hr)
C[C@]12CCC(=O)C=C1CC[C@@H]1[C@@H]2[C@@H](O)C[C@@]2(C)[C@H]1CC[C@]2(O)C(=O)CO [Hydrocortisone],Chromatophore response Melanophores,melanophores,Hyp. D.
same,Response time Hr.,chromatophores [4],XX (key: X=1-6 hr; XX=6-24 hr)
same,Chromatophore response Erythrophores,erythrophores,HypD.
CCn1cc(C(=O)O)c(=O)c2ccc(C)nc21 [Nalidixic acid],2-Cell Cytosensor (second cell type included),[9],Normal
same,minimal effective concentration,chromatophores [2],1 to 100 µg/mL
same,Response time Hr.,chromatophores [4],XX (key: X=1-6 hr; XX=6-24 hr)
